Experimental data reported in ChEMBL document CHEMBL5331046, “Disulfiram and dithiocarbamate analogues demonstrate promising antischistosomal effects” (Eur J Med Chem, 2022).
Active and inactive are the calls of the source. No cut-off for these calls is given here.

Assays:
Schistosoma mansoni [1] = test: Antischistosomal activity against Schistosoma mansoni couples assessed as inhibition of eggs production at 100 uM measured upto 72 hrs by bright field microscopy; type: functional; design: scale not given: the % may be the effect or the level left
Schistosoma mansoni [2] = test: Antischistosomal activity against Schistosoma mansoni couples assessed as decrease in pairing stability at 5 uM measured upto 72 hrs by bright field microscopy; type: functional; design: scale not given: the % may be the effect or the level left
Schistosoma mansoni [3] = test: Antischistosomal activity against Schistosoma mansoni couples assessed as pairing instability at 100 uM measured upto 72 hrs by bright field microscopy; type: functional
HepG2 [4] = test: Cytotoxicity against human HepG2 cells assessed as reduction in cell vaibility at 100 uM by WST-1 assay; type: toxicity, cell-based; conditions: hepg2, 100 µM
LS174T [5] = test: Cytotoxicity against human LS174T cells assessed as reduction in cell viability at 100 uM by WST-1 assay; type: toxicity, cell-based
Schistosoma mansoni [6] = test: Antischistosomal activity against Schistosoma mansoni couples assessed as decrease in parasite motility at 10 uM measured upto 72 hrs by bright field microscopy; type: functional, organism-based
Schistosoma mansoni [7] = test: Antischistosomal activity against Schistosoma mansoni couples assessed as decrease in parasite motility at 15 uM measured upto 72 hrs by bright field microscopy; type: functional; design: scale not given: the % may be the effect or the level left
Schistosoma mansoni [8] = test: Antischistosomal activity against Schistosoma mansoni couples assessed as decrease in parasite vitality at 15 uM measured upto 72 hrs by bright field microscopy; type: functional; design: scale not given: the % may be the effect or the level left
Schistosoma mansoni [9] = test: Antischistosomal activity against Schistosoma mansoni couples assessed as decrease in pairing stability at 15 uM measured upto 72 hrs by bright field microscopy; type: functional; design: scale not given: the % may be the effect or the level left
Schistosoma mansoni [10] = test: Antischistosomal activity against Schistosoma mansoni couples assessed as inhibition of eggs production at 15 uM measured upto 72 hrs by bright field microscopy; type: functional; design: scale not given: the % may be the effect or the level left
Schistosoma mansoni [11] = test: Antischistosomal activity against Schistosoma mansoni couples assessed as induction of phenotypes at 10 uM measured upto 72 hrs by bright field microscopy; type: functional, organism-based
Schistosoma mansoni [12] = test: Antischistosomal activity against Schistosoma mansoni couples assessed as tegument damage at 10 uM measured upto 72 hrs by bright field microscopy; type: functional, organism-based
Schistosoma mansoni [13] = test: Antischistosomal activity against Schistosoma mansoni couples assessed as loss of internal structures at 10 uM measured upto 72 hrs by bright field microscopy; type: functional, organism-based
Schistosoma mansoni [14] = test: Antischistosomal activity against Schistosoma mansoni couples assessed as tegument damage at <=10 uM measured upto 72 hrs by bright field microscopy; type: functional, organism-based
Schistosoma mansoni [15] = test: Antischistosomal activity against Schistosoma mansoni couples assessed as gut dilatations at <=10 uM measured upto 72 hrs by bright field microscopy; type: functional, organism-based
Schistosoma mansoni [16] = test: Antischistosomal activity against Schistosoma mansoni couples assessed as loss of internal structures at <=10 uM measured upto 72 hrs by bright field microscopy; type: functional, organism-based
Schistosoma mansoni [17] = test: Antischistosomal activity against Schistosoma mansoni couples assessed as reduction in parasite motility at <=10 uM measured upto 72 hrs by bright field microscopy; type: functional; design: scale not given: the % may be the effect or the level left; conditions: up to 10 µM
Schistosoma mansoni [18] = test: Antischistosomal activity against Schistosoma mansoni couples assessed as gut dilatations at 10 uM measured upto 72 hrs by bright field microscopy; type: functional, organism-based
Schistosoma mansoni [19] = test: Antischistosomal activity against Schistosoma mansoni couples assessed as decrease in parasite motility at 25 uM measured upto 72 hrs by bright field microscopy; type: functional; design: scale not given: the % may be the effect or the level left
Schistosoma mansoni [20] = test: Antischistosomal activity against Schistosoma mansoni couples at 100 uM measured upto 72 hrs by bright field microscopy; type: functional, organism-based
Schistosoma mansoni [21] = test: Antischistosomal activity against Schistosoma mansoni couples assessed as decrease in parasite vitality at 10 uM measured upto 72 hrs by bright field microscopy; type: functional
Schistosoma mansoni [22] = test: Antischistosomal activity against Schistosoma mansoni couples assessed as dead worms at 25 uM measured upto 72 hrs by bright field microscopy; type: functional
Schistosoma mansoni [23] = test: Antischistosomal activity against Schistosoma mansoni couples assessed as edematous swelling of gut at 25 uM measured upto 72 hrs by bright field microscopy; type: functional, organism-based
Schistosoma mansoni [24] = test: Antischistosomal activity against Schistosoma mansoni couples assessed as inhibition of eggs production at 10 uM measured upto 72 hrs by bright field microscopy; type: functional, organism-based
Schistosoma mansoni [25] = test: Antischistosomal activity against Schistosoma mansoni couples assessed as reduction in pairing stability at 10 uM measured upto 72 hrs by bright field microscopy; type: functional, organism-based
HepG2 [26] = test: Cytotoxicity against human HepG2 cells assessed as reduction in cell vaibility at 25 uM by WST-1 assay; type: toxicity, cell-based; conditions: hepg2, 25 µM
LS174T [27] = test: Cytotoxicity against human LS174T cells assessed as reduction in cell vaibility at 25 uM by WST-1 assay; type: toxicity, cell-based
Schistosoma mansoni [28] = test: Antischistosomal activity against Schistosoma mansoni couples assessed as inhibition of eggs production at 5 uM measured upto 72 hrs by bright field microscopy; type: functional; design: scale not given: the % may be the effect or the level left
Schistosoma mansoni [29] = test: Antischistosomal activity against Schistosoma mansoni couples assessed as inhibition of eggs production at 50 uM measured upto 72 hrs by bright field microscopy; type: functional, organism-based
Schistosoma mansoni [30] = test: Antischistosomal activity against Schistosoma mansoni couples assessed as reduction in pairing stability at 50 uM measured upto 72 hrs by bright field microscopy; type: functional, organism-based
Schistosoma mansoni [31] = test: Antischistosomal activity against Schistosoma mansoni couples assessed as gut dilations at 50 uM measured upto 72 hrs by bright field microscopy; type: functional, organism-based
Schistosoma mansoni [32] = test: Antischistosomal activity against Schistosoma mansoni couples assessed as tegument damage at 50 uM measured upto 72 hrs by bright field microscopy; type: functional, organism-based
Schistosoma mansoni [33] = test: Antischistosomal activity against Schistosoma mansoni couples assessed as intestinal dilations and tegument damage at 50 uM measured upto 72 hrs by bright field microscopy; type: functional, organism-based
HepG2 [34] = test: Cytotoxicity against human HepG2 cells assessed as reduction in cell viability upto 50 uM by WST-1 assay; type: toxicity, cell-based; conditions: hepg2, 50 µM
LS174T [35] = test: Cytotoxicity against human LS174T cells assessed as reduction in cell vaibility upto 50 uM by WST-1 assay; type: toxicity, cell-based
Schistosoma mansoni [36] = test: Antischistosomal activity against Schistosoma mansoni couples assessed as reduction in pairing stability at 100 uM measured upto 72 hrs by bright field microscopy; type: functional
Schistosoma mansoni [37] = test: Antischistosomal activity against Schistosoma mansoni couples assessed as eggs deformation at 100 uM measured upto 72 hrs by bright field microscopy; type: functional
Schistosoma mansoni [38] = test: Antischistosomal activity against Schistosoma mansoni couples assessed as decrease in parasite motility at 100 uM measured upto 72 hrs by bright field microscopy; type: functional; design: scale not given: the % may be the effect or the level left
Schistosoma mansoni [39] = test: Antischistosomal activity against Schistosoma mansoni couples assessed as tegument damage at 100 uM measured upto 72 hrs by bright field microscopy; type: functional, organism-based
Schistosoma mansoni [40] = test: Antischistosomal activity against Schistosoma mansoni couples assessed as tegument damage at <=50 uM measured upto 72 hrs by bright field microscopy; type: functional, organism-based
Schistosoma mansoni [41] = test: Antischistosomal activity against Schistosoma mansoni couples assessed as reduction in parasite motility at <=50 uM measured upto 72 hrs by bright field microscopy; type: functional, organism-based

## CCN(CC)C(=S)SCCN1CCCCC1
Schistosoma mansoni [1]
  Activity: >80%
Schistosoma mansoni [2]
  Activity: 100%
Schistosoma mansoni [3]
  Activity: 100%

## O=[N+]([O-])c1ccc(CSC(=S)N2CCN(S(=O)(=O)c3ccccc3)CC2)cc1
HepG2 [4]
  Activity: Toxic
LS174T [5]
  Activity: Toxic
Schistosoma mansoni [6]
  Activity: Active
Schistosoma mansoni [7]
  Activity: 50%
Schistosoma mansoni [8]
  Activity: 90%
Schistosoma mansoni [9]
  Activity: 20%
Schistosoma mansoni [10]
  Activity: 40%
Schistosoma mansoni [11]
  Activity: Active
Schistosoma mansoni [12]
  Activity: Active
Schistosoma mansoni [13]
  Activity: Active
Schistosoma mansoni [14]
  Activity: inactive
Schistosoma mansoni [15]
  Activity: inactive
Schistosoma mansoni [16]
  Activity: inactive
Schistosoma mansoni [17]
  Activity: 50%
Schistosoma mansoni [18]
  Activity: Active

## C[C@H](N)C(=O)N1CCN(C(=S)SCc2ccc([N+](=O)[O-])cc2)CC1.Cl
Schistosoma mansoni [19]
  Activity: 65%
HepG2 [4]
  Activity: Toxic
LS174T [5]
  Activity: Toxic
Schistosoma mansoni [20]
  Activity: Active
Schistosoma mansoni [6]
  Activity: inactive
Schistosoma mansoni [21]
  Activity: Active
Schistosoma mansoni [22]
  Activity: <=25%
Schistosoma mansoni [23]
  Activity: Active
Schistosoma mansoni [24]
  Activity: Active
Schistosoma mansoni [25]
  Activity: Active
HepG2 [26]
  Activity: Toxic
LS174T [27]
  Activity: Toxic

## Cl.O=C([C@@H]1CCCN1)N1CCN(C(=S)SCc2ccc([N+](=O)[O-])cc2)CC1
Schistosoma mansoni [19]
  Activity: 65%
HepG2 [4]
  Activity: Toxic
LS174T [5]
  Activity: Toxic
Schistosoma mansoni [20]
  Activity: Active
Schistosoma mansoni [6]
  Activity: inactive
Schistosoma mansoni [2]
  Activity: ~80%
Schistosoma mansoni [28]
  Activity: ~80%
Schistosoma mansoni [21]
  Activity: Active
Schistosoma mansoni [22]
  Activity: <=25%
Schistosoma mansoni [23]
  Activity: Active
Schistosoma mansoni [24]
  Activity: Active
Schistosoma mansoni [25]
  Activity: Active
HepG2 [26]
  Activity: Toxic
LS174T [27]
  Activity: Toxic

## CCN(CC)C(=S)SCc1ccc(SC)cc1
Schistosoma mansoni [29]
  Activity: Active
Schistosoma mansoni [30]
  Activity: Active
Schistosoma mansoni [31]
  Activity: Active
Schistosoma mansoni [32]
  Activity: Active
Schistosoma mansoni [33]
  Activity: Active
HepG2 [34]
  Activity: Non-Toxic
LS174T [35]
  Activity: Non-Toxic

## CCCN(CCC)C(=S)SCc1ccccc1
Schistosoma mansoni [36]
  Activity: Active
Schistosoma mansoni [37]
  Activity: Active
Schistosoma mansoni [38]
  Activity: ~40%
Schistosoma mansoni [39]
  Activity: Active
Schistosoma mansoni [40]
  Activity: inactive
Schistosoma mansoni [41]
  Activity: inactive
